Data published in paper PMC12535076, “Neurotherapeutic effects of Vutiglabridin as a Paraoxonase-2 modulator in preclinical models of Parkinson’s disease” (Molecular Neurodegeneration, 2025).
Like-named read-outs stand apart in the source and are kept apart here.

Legend:
[1] = molecular target: T1, MAO-A (Homo sapiens, UniProt P21397); assay: ROS Glo based MAO-A enzyme activity assay; type: biochemical; conditions: printed as 'separate MAO-B assay' within the MAO-A panel (b); read-out: IC50, ROS-Glo method, panel (b)
T1 sequence (P21397 1-527): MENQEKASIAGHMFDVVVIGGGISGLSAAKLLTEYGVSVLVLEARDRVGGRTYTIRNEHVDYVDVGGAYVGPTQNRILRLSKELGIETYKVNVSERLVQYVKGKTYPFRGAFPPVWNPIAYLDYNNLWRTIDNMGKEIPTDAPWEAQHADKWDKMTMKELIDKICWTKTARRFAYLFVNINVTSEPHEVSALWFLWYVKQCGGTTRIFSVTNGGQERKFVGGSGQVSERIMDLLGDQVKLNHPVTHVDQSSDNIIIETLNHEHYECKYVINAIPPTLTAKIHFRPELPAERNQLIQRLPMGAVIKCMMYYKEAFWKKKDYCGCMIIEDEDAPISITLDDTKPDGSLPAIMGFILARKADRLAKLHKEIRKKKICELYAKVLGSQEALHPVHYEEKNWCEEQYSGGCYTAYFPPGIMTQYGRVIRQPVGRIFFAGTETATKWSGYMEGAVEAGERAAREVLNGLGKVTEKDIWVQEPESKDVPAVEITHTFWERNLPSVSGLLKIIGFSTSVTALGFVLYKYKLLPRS
Method: An enzyme solution was prepared by diluting 10 µL of a 2.5 mg/mL MAO-A or MAO-B stock in 10 mL of 50 mM sodium phosphate buffer (pH 7.4). A substrate solution was prepared by diluting 200 µL of a 100 mM benzylamine (or tyramine) stock in 10 mL phosphate buffer to achieve a final concentration of 1 mM. For each 96-well plate experiment, 12.5 µL of a 1× H2O2 probe solution was added to 1 mL of the probe dilution buffer from the ROS Glo™ kit. Separately, 40 µL of cysteine and enhancer were diluted into 4 mL of Luciferin solution. In each well, 49 µL of the enzyme solution was dispensed, followed by 1 µL of the test compound, and incubated for 30 min. Then, 49 µL of the substrate solution was added, and the reaction proceeded at 37 °C for 60 min. Next, 10 µL of the H2O2 probe solution was added and incubated for 15 min. Subsequently, 40 µL of a luciferin solution containing cysteine and an enhancer was added, followed by an additional 30-minute incubation at 37 °C. Luminescence was subsequently recorded using a microplate luminescence reader (SpectraMax i3, Molecular Devices).

[2] = Octanol-water partition coefficient measurement; type: physicochemical; conditions: octanol / pH 7.4 phosphate buffer, octanol / pH7.4 phosphate buffer, room temperature 24 h, aqueous phase below LOQ, LOQ value used, read-out: octanol-water partition coefficient (log D)
Method: 1000 µg/mL of Vuti was mixed with octanol, and an aliquot of 2 mL was mixed with the same amount of aliquot of 2 mL of pH7.4 phosphate buffer. The mixed solution was shaken at room temperature for 24 h, and the aqueous and octanol phase was separately analyzed for Vuti concentration via HLPC. The limit of quantification (LOQ) was 0.2012 µg/ml. Three replicates were performed. Because no concentration was detected in the aqueous phase, LOQ value was used; the actual concentration in the aqueous phase is expected to be lower than LOQ. The octanol-water partition coefficient Log D was calculated as log of concentration in octanol phase divided by concentration in aqueous phase.
(a) Measurement of Vuti concentration in octanol and aqueous phase (pH7.4 phosphate buffer) via HPLC. The mean value of three replicates was used, and the limit of quantification (LOQ) value was used to calculate Log D as a log of concentration in the octanol phase divided by the concentration in the aqueous phase. (b) Efflux ratios (Papp(B→A)/Papp(A→B)) of Vuti in three types of cell monolayers, with or without P-glycoprotein (P-gp) inhibitor GF120918. (c) Schematic of 14C-labeling of Vuti. Attachment to the ethoxy group is warranted because it is robustly maintained throughout metabolism. (d) Plasma radioactivity concentration in Sprague-Dawley rats after a single administration of 10 mg/kg of 14C-Vuti (n = 3).

[3] = Quantification of drug concentration in plasma and brain of mice (LC-MS/MS); type: in vivo, C57BL/6J mice; conditions: mouse
Method: Male C57BL/6J mice (8 weeks old, n = 24, non-fasted; Charles River Japan (CRJ), OrientBio, Seongnam, Korea) were dosed with 50 mg/kg of Vuti once and sacrificed at 0, 1, 2, 4, 6, 8, 10, 24 h time point (n = 3 per time point). Their whole blood was collected via the vena cava in a heparin-coated syringe and their whole brain was collected after perfusion with 0.9% saline. Vuti was quantified in both plasma and brain samples using LC-MS/MS analysis. This study was performed in accordance with the Association for Assessment and Accreditation of Laboratory Animal Care International (AAALAC; Approval No. LCDI-2021-0027).
LC-MS/MS analysis to quantify Vuti used previously set conditions. Briefly, HPLC-ESI-MS/MS analyses were performed using a 1200 series HPLC system (Agilent Technologies, Wilmington, DE) coupled to 6490 Accurate-Mass Triple Quadrupole Mass Spectrometer (Agilent Technologies, Wilmington, DE). Mass detection was performed in the positive ion mode, and the column temperature was maintained at 40 °C using a thermostatically controlled column oven. The column used for the separation was Hypersil GOLD C18 column (2.1 × 100 mm ID; 1.9 μm, Thermo Science). The mobile phases consisted of 0.1% acetic acid in distilled water (solvent A) and 0.1% acetic acid in ACN: MeOH = 3:1 (v/v) (solvent B). The LC gradient was as follows: 0–3 min, B 20%; 3–5 min, B 20 − 80%; 5–8 min, B 80%; 8–10 min, B 80 − 20%; and 10–15 min, B 20%. The flow rate was 250 µL/ min, and the total run time was 15 min. For multiple reaction monitoring (MRM) analyses, the target transition used was 355.1/151.0 m/z for Vuti. The collision energy was 17 V and nitrogen was used as the desolvation gas at a flow rate of 11 L/min and at 300 °C. Skyline software (MacCoss Laboratory, University of Washington, Seattle, WA) was used to process the LC-MS/MS data.

## CCOc1ccc(C2COc3c(ccc4c3CCC(C)(C)O4)C2)c(O)c1 (stereo not drawn) [Vuti, Vutiglabridin]
[1]
  IC50: 24.7 µM
[2]
  logD at 24 h: > 3.69
[3]; male, C57BL/6J, brain / plasma, oral, single 50 mg/kg, at Tmax of 6 h, read-out: brain concentration relative to plasma
  Kp at 6 h: 2.7
[3]; male, C57BL/6J, brain / plasma, single oral 50 mg/kg, read-out: brain relative to plasma by AUC24h
  Kp: 2.6
[3]; male, C57BL/6J, brain, single oral 50 mg/kg, at Tmax of 6 h, read-out: concentration in brain
  concentration at 6 h: 4030 ng/g
[3]; male, C57BL/6J, plasma, single oral 50 mg/kg
  Tmax: 6 h
[3]; male, C57BL/6J, plasma, single oral 50 mg/kg, at Tmax of 6 h, read-out: concentration in plasma
  concentration at 6 h: 1490 ng/mL
[3]; male, C57BL/6J, plasma, single oral 50 mg/kg, read-out: AUC24h in plasma
  AUC(0-t): 16100 ng·h/mL
[3]; single oral 50 mg/kg
  AUC24h in brain: 42.5 µg·h/g
